For the experiment, the target named is T1, IKKε (Homo sapiens, UniProt Q14164).
T1 construct: His-tag; made in house; host or cells: Sf9 insect cells
T1 sequence (Q14164 1-716): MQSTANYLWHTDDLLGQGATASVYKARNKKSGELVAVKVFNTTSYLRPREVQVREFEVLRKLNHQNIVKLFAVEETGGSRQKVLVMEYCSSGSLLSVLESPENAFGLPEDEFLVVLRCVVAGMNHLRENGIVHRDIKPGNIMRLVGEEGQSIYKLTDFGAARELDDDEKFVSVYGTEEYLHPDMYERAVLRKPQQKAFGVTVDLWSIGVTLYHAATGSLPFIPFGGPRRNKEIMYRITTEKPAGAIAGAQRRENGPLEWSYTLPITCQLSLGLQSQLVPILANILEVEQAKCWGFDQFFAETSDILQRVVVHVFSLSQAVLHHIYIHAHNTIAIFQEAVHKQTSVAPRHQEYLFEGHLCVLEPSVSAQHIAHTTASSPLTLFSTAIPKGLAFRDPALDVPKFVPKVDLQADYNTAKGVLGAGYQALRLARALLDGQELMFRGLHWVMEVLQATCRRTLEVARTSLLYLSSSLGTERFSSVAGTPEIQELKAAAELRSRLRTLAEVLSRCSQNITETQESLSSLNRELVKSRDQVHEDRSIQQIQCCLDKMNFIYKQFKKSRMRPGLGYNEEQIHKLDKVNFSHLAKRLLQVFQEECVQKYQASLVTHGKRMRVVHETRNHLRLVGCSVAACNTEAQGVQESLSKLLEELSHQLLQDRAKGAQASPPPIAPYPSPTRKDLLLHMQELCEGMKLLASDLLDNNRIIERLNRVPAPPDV
In words: In-vitro IKKε kinase assay ([γ33]ATP filter-plate). It is filed as biochemical. The conditions noted are these: text bins; read-out: IC50 for inhibition of the kinase activity of IKKε. The method in brief: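 His-tagged IKKε and TBK1 from Sf9 cells were assayed with myelin basic protein or casein and [γ33]ATP at 2×Km ATP (32 μM for IKKε, 60 μM for TBK1). Enzyme was 0.1 or 0.015 μg/ml for IKKε and 0.1 or 0.02 μg/ml for TBK1 (normal/sensitized). Reactions ran 30-45 min, were filter-captured, scintillation-counted, and normalized to DMSO after background subtraction.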
Broadly, the IC50 is the point on the concentration scale where inhibition reaches its midpoint. On to `C[C@H](O)C(=O)N1CC(Oc2ccc(-c3ccnc(Nc4ccc(N5CCOCC5)cc4)n3)cc2C#N)C1` [Example 249, 2-({1-[(2S)-2-hydroxypropanoyl]azetidin-3-yl}oxy)-5-(2-{[4-(morpholin-4-yl)phenyl]amino}pyrimidin-4-yl)benzonitrile], for which the 50% inhibitory concentration (IC50) lay within 50 to 500 nM. Then `COc1ccc(-c2ccnc(Nc3ccc(N4CCCC4C(=O)N(C)C)c(OC)c3)n2)cc1C#N` (centres unmarked) [Example 87], with 5 to 50 nM; and `COC1CCN(c2cccc(Nc3nccc(-c4ccc(O[C@@H]5CCN(C(=O)CO)C5)c(C#N)c4)n3)c2)C1` (stereo partly drawn) [compound 546, 2-{[(3R)-1-(Hydroxyacetyl)pyrrolidin-3-yl]oxy}-5-(2-{[3-(3-methoxypyrrolidin-1-yl)phenyl]amino}pyrimidin-4-yl)benzonitrile], with below 5 nM. With `CCNS(=O)(=O)c1ccc(Nc2nccc(-c3ccc(NC(=O)C(C)C)c(C#N)c3)n2)cc1` [compound 449, N-[2-cyano-4-(2-{[4-(ethylsulfamoyl)phenyl]amino}pyrimidin-4-yl)phenyl]-2-methylpropanamide], the half-inhibitory concentration (IC50) lay in the range of 5 to 50 nM. As to `N#Cc1cc(-c2ccnc(Nc3cccc(NC(=O)NC4CCC(O)CC4)c3)n2)ccc1OC1CCOCC1` (centres unmarked) [compound 589, 1-[3-({4-[3-Cyano-4-(tetrahydro-2H-pyran-4-yloxy)phenyl]pyrimidin-2-yl}amino)phenyl]-3-(4-hydroxycyclohexyl) urea], the IC50 is below 5 nM. Then `COc1ccc(-c2ccnc(Nc3ccc(NC(=O)NC4CCCC4)cc3)n2)cc1C#N` [Example 8, 1-(4-{[4-(3-Cyano-4-methoxyphenyl)pyrimidin-2-yl]amino}phenyl)-3-cyclopentylurea], with 50 to 500 nM.

As for `N#Cc1cc(-c2ccnc(Nc3ccc(N4CCOCC4)cc3)n2)ccc1OCC1CNC1` [Example 39, 2-(azetidin-3-ylmethoxy)-5-(2-{[4-(morpholin-4-yl)phenyl]amino}pyrimidin-4-yl)benzonitrile], the IC50 was in the range of 5 to 50 nM. Then `CC(=O)N1CCC(Oc2ccc(-c3ccnc(Nc4ccc(N5CCOCC5)cc4)n3)cc2C#N)C1` (centres unmarked) [Example 195, 2-[(1-Acetylpyrrolidin-3-yl)oxy]-5-(2-{[4-(morpholin-4-yl)phenyl]amino}pyrimidin-4-yl)benzonitrile], with 5 to 50 nM. Then `COc1ccc(-c2ccnc(Nc3cccc(NC(=O)NCCO)c3)n2)cc1C#N` [compound 301, 1-(3-{[4-(3-Cyano-4-methoxyphenyl)pyrimidin-2-yl]amino}phenyl)-3-(2-hydroxyethyl)urea], with 5 to 50 nM; and `COc1ccc(Nc2nccc(-c3ccc(OCc4ccccc4)c(C#N)c3)n2)cc1OC` [Example 106, 2-(Benzyloxy)-5-{2-[(3,4-dimethoxyphenyl)amino]pyrimidin-4-yl}benzonitrile], with 5 to 50 nM. `COc1cc(NC(=O)c2ccncc2)cc(Nc2nccc(-c3ccc(OC)c(C#N)c3)n2)c1` [compound 357]: the IC50 fell in the range of 50 to 500 nM.

Turning to `C[C@@H](O)C(=O)N1CCC(Oc2ccc(-c3ccnc(Nc4ccc(N5CCOCC5)cc4)n3)cc2C#N)CC1` [Example 140, 2-({1-[(2R)-2-hydroxypropanoyl]piperidin-4-yl}oxy)-5-(2-{[4-(morpholin-4-yl)phenyl]amino}pyrimidin-4-yl)benzonitrile], the half-maximal inhibitory concentration (IC50) was in the range of 5 to 50 nM. Consider `CN1CCN(C2CCN(c3ccc(-c4ccnc(Nc5ccc(N6CCOCC6)cc5)n4)cc3C#N)CC2)CC1` [Example 213, 2-[4-(4-Methylpiperazin-1-yl)piperidin-1-yl]-5-(2-{[4-(morpholin-4-yl)phenyl]amino}pyrimidin-4-yl)benzonitrile], for which the half-inhibitory concentration (IC50) is 50 to 500 nM. Turning to `CN1CCN(CCOc2ccc(Nc3nccc(-c4cccc(C#N)c4)n3)cc2)CC1` [Example 292, 3-[2-({4-[2-(4-Methylpiperazin-1-yl)ethoxy]phenyl}amino)pyrimidin-4-yl]benzonitrile], the IC50 was 50 to 500 nM. The value for `COc1ccc(Nc2nccc(-c3ccc(Cl)c(C#N)c3)n2)cc1OC` [Example 182, 2-Chloro-5-{2-[(3,4-dimethoxyphenyl)amino]pyrimidin-4-yl}benzonitrile] was 5 to 50 nM; that for `CC(Oc1ccc(-c2ccnc(Nc3ccc(N4CCOCC4)cc3)n2)cc1C#N)C(=O)O` (centres unmarked) [Example 265, 2-[2-Cyano-4-(2-{[4-(morpholin-4-yl)phenyl]amino}pyrimidin-4-yl)phenoxy]propanoic acid] was 50 to 500 nM; that for `CC(=O)N1CC(COc2ccc(-c3ccnc(Nc4ccc(N5CCOCC5)cc4)n3)cc2C#N)C1` [Example 125, 2-[(1-acetylazetidin-3-yl)methoxy]-5-(2-{[4-(morpholin-4-yl)phenyl]amino}pyrimidin-4-yl)benzonitrile] was 50 to 500 nM. Then `CC(C)(COc1ccc(-c2ccnc(Nc3ccc(N4CCOCC4)cc3)n2)cc1C#N)C(=O)N1CCOCC1` [compound 459, 2-[2,2-dimethyl-3-(morpholin-4-yl)-3-oxopropoxy]-5-(2-{[4-(morpholin-4-yl)phenyl]amino}pyrimidin-4-yl)benzonitrile], with 50 to 500 nM.

Regarding `COC1CN(C(C)c2ccc(Nc3nccc(-c4ccc(O[C@@H]5CCN(C(=O)CO)C5)c(C#N)c4)n3)cc2)C1` (some centres unmarked) [compound 602], the IC50 fell in the range of 5 to 50 nM. As to `COc1ccc(-c2ccnc(Nc3cccc(S(=O)(=O)NCCO)c3)n2)cc1C#N` [compound 309, 3-{[4-(3-Cyano-4-methoxyphenyl)pyrimidin-2-yl]amino}-N-(2-hydroxyethyl) benzenesulfonamide], the concentration for half-maximal inhibition (IC50) fell in the range of 50 to 500 nM. The value for `N#Cc1cc(-c2ccnc(Nc3ccc(N4CCOCC4)cc3)n2)ccc1OC1CCN(C(=O)C(F)(F)F)CC1` [Example 247, 5-(2-{[4-(Morpholin-4-yl)phenyl]amino}pyrimidin-4-yl)-2-{[1-(trifluoroacetyl)piperidin-4-yl]oxy}benzonitrile] was 5 to 50 nM; that for `N#Cc1cc(-c2ccnc(Nc3ccc(N4CCOCC4)cc3)n2)ccc1OCC1CN(C(=O)CO)C1` [Example 188, 2-{[1-(hydroxyacetyl)azetidin-3-yl]methoxy}-5-(2-{[4-(morpholin-4-yl)phenyl]amino}pyrimidin-4-yl)benzonitrile] was 5 to 50 nM; that for `CC(C)(C)C(=O)Nc1ccc(-c2ccnc(Nc3ccc(N4CCOCC4)cc3)n2)cc1C#N` [Example 196, N-[2-cyano-4-(2-{[4-(morpholin-4-yl)phenyl]amino}pyrimidin-4-yl)phenyl]-2,2-dimethylpropanamide] was 5 to 50 nM. With `N#Cc1cc(-c2ccnc(Nc3ccc(N4CCOCC4)cc3)n2)ccc1OC1CCN(C(=O)[C@H](O)C(F)(F)F)CC1` [Example 57, 5-(2-{[4-(Morpholin-4-yl)phenyl]amino}pyrimidin-4-yl)-2-({1-[(2S)-3,3,3-trifluoro-2-hydroxypropanoyl]piperidin-4-yl}oxy)benzonitrile], the IC50 is 5 to 50 nM. On to `CN(C)C(=O)Nc1ccc(-c2ccnc(Nc3ccc(N4CCOCC4)cc3)n2)cc1C#N` [Example 81, 3-[2-cyano-4-(2-{[4-(morpholin-4-yl)phenyl]amino}pyrimidin-4-yl)phenyl]-1,1-dimethylurea], for which the IC50 is 50 to 500 nM. The value for `N#Cc1cc(-c2ccnc(Nc3ccc(N4CCOCC4)cc3)n2)ccc1NC(=O)N1CCOCC1` [Example 52, N-[2-cyano-4-(2-{[4-(morpholin-4-yl)phenyl]amino}pyrimidin-4-yl)phenyl]morpholin-4-carboxamide] was 50 to 500 nM.

The values above are taken from patent US20150352108A1, “AMINO-PYRIMIDINE COMPOUNDS AS INHIBITORS OF TBK1 AND/OR IKK EPSILON” (Alzheimer's Institute of America, priority 2009, published 2015).
